Experiments:
D(3) dopamine receptor = D(3) dopamine receptor (Homo sapiens, UniProt P35462)
[1] = target: T1, Amine oxidase [flavin-containing] A (Homo sapiens, UniProt P21397); assay type: functional
T1 sequence (P21397 whole entry): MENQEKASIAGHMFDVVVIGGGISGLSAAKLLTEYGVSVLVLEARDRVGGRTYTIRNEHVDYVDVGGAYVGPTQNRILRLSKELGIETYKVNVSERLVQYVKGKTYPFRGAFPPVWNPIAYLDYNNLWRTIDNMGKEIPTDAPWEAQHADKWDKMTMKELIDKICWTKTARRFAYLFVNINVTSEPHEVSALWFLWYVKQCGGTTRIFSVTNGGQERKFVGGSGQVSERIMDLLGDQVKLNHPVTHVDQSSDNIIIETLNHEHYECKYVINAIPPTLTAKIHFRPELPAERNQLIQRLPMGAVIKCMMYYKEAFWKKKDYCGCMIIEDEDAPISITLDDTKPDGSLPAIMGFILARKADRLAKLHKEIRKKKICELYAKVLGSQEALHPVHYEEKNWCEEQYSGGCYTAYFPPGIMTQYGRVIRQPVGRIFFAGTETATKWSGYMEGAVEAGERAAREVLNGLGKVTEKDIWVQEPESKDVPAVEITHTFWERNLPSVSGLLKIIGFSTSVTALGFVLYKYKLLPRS

[2] = target: T2, 5-hydroxytryptamine receptor 1A (Homo sapiens, UniProt P08908)
T2 sequence (P08908 whole entry): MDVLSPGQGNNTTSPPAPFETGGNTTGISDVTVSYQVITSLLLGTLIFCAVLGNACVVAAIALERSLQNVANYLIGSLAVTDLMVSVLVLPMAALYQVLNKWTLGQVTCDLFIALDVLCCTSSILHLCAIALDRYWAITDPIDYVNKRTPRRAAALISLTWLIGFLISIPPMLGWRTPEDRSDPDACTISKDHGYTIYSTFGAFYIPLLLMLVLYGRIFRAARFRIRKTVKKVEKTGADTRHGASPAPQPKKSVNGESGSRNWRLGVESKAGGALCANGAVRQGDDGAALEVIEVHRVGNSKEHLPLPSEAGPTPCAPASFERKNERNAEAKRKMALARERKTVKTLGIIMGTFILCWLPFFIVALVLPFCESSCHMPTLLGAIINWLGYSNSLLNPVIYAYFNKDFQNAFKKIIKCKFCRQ

[3] = target: Sodium-dependent noradrenaline transporter (Homo sapiens, UniProt P23975)
Sodium-dependent noradrenaline transporter, sequence (P23975 whole entry): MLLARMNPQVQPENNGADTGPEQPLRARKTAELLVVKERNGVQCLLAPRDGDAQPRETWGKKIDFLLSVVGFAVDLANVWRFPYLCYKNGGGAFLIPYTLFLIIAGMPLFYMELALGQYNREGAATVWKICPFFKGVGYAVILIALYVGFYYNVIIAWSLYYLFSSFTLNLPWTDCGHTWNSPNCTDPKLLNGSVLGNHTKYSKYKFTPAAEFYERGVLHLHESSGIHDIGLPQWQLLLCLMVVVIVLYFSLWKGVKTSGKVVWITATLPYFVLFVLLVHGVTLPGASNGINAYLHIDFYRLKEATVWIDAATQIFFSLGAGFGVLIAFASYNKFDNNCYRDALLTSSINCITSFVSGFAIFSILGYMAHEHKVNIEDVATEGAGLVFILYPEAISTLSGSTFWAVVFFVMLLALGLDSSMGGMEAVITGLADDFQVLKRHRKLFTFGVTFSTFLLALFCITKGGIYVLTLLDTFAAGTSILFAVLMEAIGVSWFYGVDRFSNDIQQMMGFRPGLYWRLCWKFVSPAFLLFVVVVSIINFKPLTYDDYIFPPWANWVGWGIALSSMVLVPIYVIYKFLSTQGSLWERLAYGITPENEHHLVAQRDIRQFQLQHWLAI

[4] = target: T3, Alpha-2A adrenergic receptor (Homo sapiens, UniProt P08913); assay type: functional, cell-based
T3 sequence (P08913 whole entry): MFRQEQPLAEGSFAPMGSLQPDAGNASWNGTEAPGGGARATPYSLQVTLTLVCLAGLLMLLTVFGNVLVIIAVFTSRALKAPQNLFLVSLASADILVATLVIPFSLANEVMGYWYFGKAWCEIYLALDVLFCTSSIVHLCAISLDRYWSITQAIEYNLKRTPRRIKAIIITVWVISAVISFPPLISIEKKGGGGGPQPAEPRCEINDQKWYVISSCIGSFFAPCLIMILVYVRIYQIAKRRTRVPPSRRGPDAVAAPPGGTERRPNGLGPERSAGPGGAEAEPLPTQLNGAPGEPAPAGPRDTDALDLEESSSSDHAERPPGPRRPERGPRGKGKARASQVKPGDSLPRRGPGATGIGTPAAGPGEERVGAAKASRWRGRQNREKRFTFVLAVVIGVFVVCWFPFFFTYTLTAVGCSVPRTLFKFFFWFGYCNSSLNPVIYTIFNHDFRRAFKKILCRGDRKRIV

Thromboxane A2 receptor [5] = target: T4, Thromboxane A2 receptor (Homo sapiens, UniProt P21731); assay type: functional, cell-based
T4 sequence (P21731 whole entry): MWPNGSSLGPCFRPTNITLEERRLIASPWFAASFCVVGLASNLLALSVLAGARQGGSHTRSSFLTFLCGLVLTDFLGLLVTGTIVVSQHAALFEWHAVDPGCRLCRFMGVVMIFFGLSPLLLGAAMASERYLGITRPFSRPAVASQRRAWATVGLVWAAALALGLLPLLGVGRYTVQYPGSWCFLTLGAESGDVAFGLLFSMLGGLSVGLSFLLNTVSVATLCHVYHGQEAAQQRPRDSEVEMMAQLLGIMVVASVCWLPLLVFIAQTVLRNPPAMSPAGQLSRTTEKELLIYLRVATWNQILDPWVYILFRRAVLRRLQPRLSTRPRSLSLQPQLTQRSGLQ

[6] = target: Prostaglandin G/H synthase 1 (Homo sapiens, UniProt P23219); assay type: functional
Prostaglandin G/H synthase 1, sequence (P23219 whole entry): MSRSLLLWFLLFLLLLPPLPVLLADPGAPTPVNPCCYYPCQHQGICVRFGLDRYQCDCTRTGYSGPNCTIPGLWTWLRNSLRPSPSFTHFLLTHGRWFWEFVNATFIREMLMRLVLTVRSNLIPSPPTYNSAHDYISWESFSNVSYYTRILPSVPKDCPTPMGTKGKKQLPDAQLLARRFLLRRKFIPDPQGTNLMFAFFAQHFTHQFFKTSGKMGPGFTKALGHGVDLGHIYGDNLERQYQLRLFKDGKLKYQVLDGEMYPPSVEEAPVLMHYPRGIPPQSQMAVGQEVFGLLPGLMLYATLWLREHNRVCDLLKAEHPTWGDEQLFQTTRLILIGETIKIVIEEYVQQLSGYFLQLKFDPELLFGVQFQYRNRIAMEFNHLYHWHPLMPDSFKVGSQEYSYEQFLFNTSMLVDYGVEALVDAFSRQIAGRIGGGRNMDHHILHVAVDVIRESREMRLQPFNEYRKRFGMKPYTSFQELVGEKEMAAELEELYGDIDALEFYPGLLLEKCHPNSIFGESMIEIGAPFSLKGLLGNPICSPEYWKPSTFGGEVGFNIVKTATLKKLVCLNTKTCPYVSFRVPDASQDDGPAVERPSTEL

[7] = target: Gamma-aminobutyric acid receptor subunit alpha-1 (Rattus norvegicus, UniProt P62813); assay type: functional
Gamma-aminobutyric acid receptor subunit alpha-1, sequence (P62813 whole entry): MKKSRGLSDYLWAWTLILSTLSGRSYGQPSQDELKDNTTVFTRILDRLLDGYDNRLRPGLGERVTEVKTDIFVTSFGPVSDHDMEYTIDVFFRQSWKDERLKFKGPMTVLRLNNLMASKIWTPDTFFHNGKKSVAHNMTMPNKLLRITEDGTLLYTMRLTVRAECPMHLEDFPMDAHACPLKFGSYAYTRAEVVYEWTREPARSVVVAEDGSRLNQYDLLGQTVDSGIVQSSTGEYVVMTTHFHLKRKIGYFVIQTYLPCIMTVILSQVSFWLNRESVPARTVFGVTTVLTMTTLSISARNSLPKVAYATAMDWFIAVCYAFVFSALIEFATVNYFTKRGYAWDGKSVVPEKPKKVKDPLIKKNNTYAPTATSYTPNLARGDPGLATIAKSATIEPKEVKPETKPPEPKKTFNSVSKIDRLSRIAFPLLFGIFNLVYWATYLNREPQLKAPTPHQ

[8] = target: Kappa-type opioid receptor (Homo sapiens, UniProt P41145)
Kappa-type opioid receptor, sequence (P41145 whole entry): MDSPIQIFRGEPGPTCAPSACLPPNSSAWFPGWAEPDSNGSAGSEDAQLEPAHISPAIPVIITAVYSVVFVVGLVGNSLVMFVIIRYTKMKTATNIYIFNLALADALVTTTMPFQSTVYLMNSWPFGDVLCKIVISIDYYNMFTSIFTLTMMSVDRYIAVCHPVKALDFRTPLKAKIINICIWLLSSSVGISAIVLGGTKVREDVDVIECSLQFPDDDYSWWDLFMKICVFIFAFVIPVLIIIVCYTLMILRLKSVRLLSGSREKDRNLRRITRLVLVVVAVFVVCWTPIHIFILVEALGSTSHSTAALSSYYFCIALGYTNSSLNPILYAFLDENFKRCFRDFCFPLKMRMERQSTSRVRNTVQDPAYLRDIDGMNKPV

Thromboxane A2 receptor [9] = target: T4, Thromboxane A2 receptor; assay type: functional, cell-based; remark: listed apart in the source
Also: assay procedure not described here.

D(3) dopamine receptor, sequence (P35462 whole entry): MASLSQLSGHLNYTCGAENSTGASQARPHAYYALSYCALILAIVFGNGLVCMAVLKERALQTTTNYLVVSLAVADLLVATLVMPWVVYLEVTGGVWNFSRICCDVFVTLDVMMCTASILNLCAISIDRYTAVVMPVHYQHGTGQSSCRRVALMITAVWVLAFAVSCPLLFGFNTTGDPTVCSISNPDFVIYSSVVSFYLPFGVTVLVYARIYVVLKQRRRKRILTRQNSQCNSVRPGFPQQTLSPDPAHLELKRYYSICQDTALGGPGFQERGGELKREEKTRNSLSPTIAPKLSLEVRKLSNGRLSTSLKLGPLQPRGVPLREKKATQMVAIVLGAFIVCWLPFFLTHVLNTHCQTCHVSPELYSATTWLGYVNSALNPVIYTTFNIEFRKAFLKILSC

SMILES	AC50 (D(3) dopamine receptor)	AC50 [1]	AC50 [2]	AC50 [3]	AC50 [4]	AC50 (Thromboxane A2 receptor [5])	AC50 [6]	AC50 [7]	AC50 [8]	AC50 (Thromboxane A2 receptor [9])
CCCc1nc2c(C)cc(-c3nc4ccccc4n3C)cc2n1Cc1ccc(-c2ccccc2C(=O)O)cc1	> 30 µM	> 30 µM	> 30 µM	> 30 µM	3.96 µM	14.5 µM	> 30 µM	> 30 µM	> 30 µM	> 1 µM
CC(C)NC(=N)NC(=N)Nc1ccc(Cl)c(Cl)c1 [CHLORPROGUANIL]	> 30 µM	> 30 µM	3.82 µM	2.89 µM	> 30 µM	> 30 µM	> 30 µM	> 30 µM	> 30 µM	> 10 µM
C[N+](C)(C)CCOP(=O)(O)OP(=O)([O-])OC[C@H]1O[C@@H](n2ccc(N)nc2=O)[C@H](O)[C@@H]1O [CITICOLINE]	> 30 µM	> 30 µM	> 30 µM	> 30 µM	> 30 µM	> 30 µM	> 30 µM	> 30 µM	> 30 µM	> 30 µM
O=C(O)Cc1ccccc1Oc1ccc(Cl)cc1Cl [FENCLOFENAC]	> 30 µM	> 30 µM	> 30 µM	> 30 µM	> 10 µM	> 30 µM	> 30 µM	> 10 µM	> 10 µM	> 30 µM
Cc1ccc(C)c(OCCCC(C)(C)C(=O)O)c1 [GEMFIBROZIL]	> 30 µM	> 30 µM	> 30 µM	> 30 µM	> 10 µM	> 30 µM	> 30 µM	> 10 µM	> 10 µM	> 30 µM
COc1cc(C(C)=O)ccc1OCCCN1CCC(c2noc3cc(F)ccc23)CC1 [ILOPERIDONE]	0.0099 µM	> 30 µM	0.11 µM	1.19 µM	0.45 µM	> 10 µM	> 30 µM	12.9 µM	> 10 µM	> 10 µM
CCCCC1C(=O)N(c2ccccc2)N(c2ccc(O)cc2)C1=O (stereo not given) [OXYPHENBUTAZONE ANHYDROUS]	> 30 µM	> 30 µM	> 30 µM	> 30 µM	–	> 30 µM	21.8 µM	–	–	> 30 µM
O=C(O)CN(CCN(CC(=O)O)CC(=O)O)CCN(CC(=O)O)CC(=O)O [PENTETIC ACID]	2.26 µM	> 30 µM	> 30 µM	10.9 µM	–	> 30 µM	> 30 µM	–	–	> 30 µM
Nc1cccc2c1C(=O)N(C1CCC(=O)NC1=O)C2=O (stereo not given) [POMALIDOMIDE]	> 30 µM	> 30 µM	> 30 µM	> 30 µM	–	26.7 µM	> 30 µM	–	–	> 30 µM
C[Se]CC[C@H](N)C(=O)O [SELENOMETHIONINE]	> 30 µM	> 30 µM	> 30 µM	> 30 µM	–	> 30 µM	> 30 µM	–	–	> 30 µM
C[N+](C)(C)CCOC(=O)CCC(=O)OCC[N+](C)(C)C [SUXAMETHONIUM]	> 30 µM	> 30 µM	> 30 µM	> 30 µM	–	> 30 µM	> 30 µM	–	–	> 30 µM
Cc1ccsc1C(=CCCN1CCC[C@@H](C(=O)O)C1)c1sccc1C [TIAGABINE]	> 30 µM	> 30 µM	> 30 µM	> 30 µM	–	> 30 µM	> 30 µM	–	–	> 30 µM
Cc1ccc(C(=O)c2ccc(CC(=O)O)n2C)cc1 [TOLMETIN]	> 30 µM	> 30 µM	> 30 µM	> 30 µM	–	> 30 µM	0.0415 µM	–	–	> 30 µM
Cc1ccccc1C(=O)Nc1ccc(C(=O)N2CCCC(O)c3cc(Cl)ccc32)c(C)c1 (stereo not given) [TOLVAPTAN]	> 30 µM	> 30 µM	11 µM	> 30 µM	–	> 30 µM	> 30 µM	–	–	7.42 µM
C[C@]12C=CC(=O)C=C1CC[C@H]1[C@@H]3C[C@@H](O)[C@](O)(C(=O)CO)[C@@]3(C)C[C@H](O)[C@@]12F [TRIAMCINOLONE]	> 30 µM	> 30 µM	> 30 µM	> 30 µM	–	> 30 µM	> 30 µM	–	–	> 30 µM
CC(C)C[C@H](NC(=O)[C@@H](O)[C@H](N)Cc1ccccc1)C(=O)O [UBENIMEX]	> 30 µM	> 30 µM	> 30 µM	> 30 µM	> 30 µM	> 30 µM	> 30 µM	> 30 µM	> 30 µM	> 30 µM
CC[C@]12CCCN3CCc4c(n(c5ccccc45)[C@@](O)(C(=O)OC)C1)[C@@H]32 [VINCAMINE]	> 30 µM	> 30 µM	> 30 µM	> 30 µM	–	> 30 µM	> 30 µM	–	–	> 30 µM

Source: ChEMBL document CHEMBL5291721, “A preclinical secondary pharmacology resource illuminates target-adverse drug reaction associations of marketed drugs” (Nat Commun, 2023)
